Measurements taken from US8329862B1, “Cell-killing peptide derived from the C-terminus of NOXA protein” (Chosun University, priority 2004, dated 2012).
No end group written: not given here.

Assays:
Assay type in all cases: cell-based
[1] = tested on: HeLa cell, a cervical cancer cell line; assay: Cell-killing effect on HeLa cells, crystal violet staining of attached living cells; conditions: for cell-killing activity compared with CKP peptide: procedure of Example 2, FIG. 6; for cell-killing activity: procedure of Example 2, crystal violet
Description: In order to examine the cell-killing effect of CKP peptide synthesized in Example 1, HeLa cell, a cervical cancer cell line was adopted and cultivated. The culture medium was replaced with experimental media containing CKP peptide solution in 0, 1, 5, 10, 15, 20, 30, 40 μM of concentration serially and cultivated for more 24 hours. In order to observe living cells attached on the surface, the resulting cells were stained for 10 minutes by using 100 μl of 0.5% crystal violet and then, washed out by using distilled water and running water to be de-stained, while discarding cells floating on the culture medium. Then, cells were observed by photography after placing culture vessel under a fluorescent lamp box as depicted in FIG. 3. At this moment, living cells attached on the surface appeared blue color since they were stained by crystal violet.

[2] = tested on: HeLa cell, a cervical cancer cell line; assay: as above; conditions: pan-caspase inhibitor z-VAD-fmk in culture media, FIG. 11
[3] = tested on: HeLa cell, a cervical cancer cell line; assay: Relative survival ratio of HeLa cells, counted from time-lapse microscopy; conditions: 1 hour
Description: In order to measure the strength of CKP peptide, several substances that are known to kill cells were adopted to compare the cell-killing effects. HeLa cell, a cervical cancer cell line was cultivated and treated with CKP peptide, TRAIL and Cisplatin to 30 μM, 100 ng/ml and 100 μg/ml respectively for 1 hour. After that, the resulting cells were observed under time-lapse video capture microscopy (Leica, Model: DMI RBE, Germany) in 20 seconds of time-interval for 1 hour by the procedure described in Example 5, photographed to 40×, counted for the numbers of living cells and dead cells and then, estimated the relative survival ratio in a graph. […] As a consequence, it is clarified that CKP peptide of the present invention had the strongest cell-killing effect about 9-fold more than TRAIL or Cisplatin.

HeLa cell lines = assay: Time-lapse video capture microscopy of HeLa cell death; conditions: for morphology of dead HeLa cells: CKP at 23 minutes and 20 seconds, TRAIL at 5 hours and 30 minutes, FIG. 8
Description: In order to analyze the action mode of CKP peptide of the present invention, several substances that are known to kill cells were adopted to compare the cell-killing effects. Above all, CKP peptide (10 μM), TRAIL (100 ng/ml) and Cisplatin (100 μg/ml) were treated to HeLa cell lines and observed under time-lapse video capture microscopy (Leica, Model: DMIRBE, Germany) in some time-interval (for CKP peptide, 20 seconds; TRAIL, 40 seconds; Cisplatin, 3 minutes) for 1 hour and 40 minutes, 3 hours and 30 minutes, 8 hours and 48 hours respectively. Then, the results were photographed to 40× by using FW4000 software. FIG. 7 depicts HeLa cells serially at each time interval. As a result, it is observed that the cell death caused by TRAIL started at about 1 hour and 30 minutes after treatment and reached the maximum level at about 8 hours. To the contrary, HeLa cell started to die at about 10 minutes after treating CKP peptide and most of HeLa cells have died even at 23 minutes and 20 seconds.

CKP 2: SEQ ID NO: 5 (RRRRRRRRGRQKALNLISKLF), substituted in one residue (fusion protein)
cell-killing activity compared with CKP peptide [1]: decreased the cell-killing activity slightly

CKP 6: SEQ ID NO: 9 (RRRRRRRRGRQKAANLISKLF), 2nd and 3rd leucines substituted to alanine (Fusion protein)
cell-killing activity compared with CKP peptide [1]: decreased the cell-killing activity remarkably

CKP 7: SEQ ID NO: 10 (RRRRRRRRGRQKLLNAISKLF), 5th leucine substituted to alanine (Fusion protein)
cell-killing activity compared with CKP peptide [1]: decreased the cell-killing activity remarkably

PTD domain without CKP domain: only PTD domain without CKP domain, synthesized as in Example 1 (RRRRRRRRG; protein transduction domain) [reference compound]
cell-killing activity [1]: not detected at all

Bid(mt)BH3CKP: fusion protein combining CKP peptide with mutant BidBH3 deleting the active site of BH3 domain, SEQ ID NO: 13 (RRRRRRRRGNIARHLAQVADSMDRRQKLLNLISKLF; Fusion protein)
cell-killing activity [1]: had the cell-killing activity

CKP 5: SEQ ID NO: 8 (RRRRRRRRGRQKALNLIAALF), substituted in three residues (fusion protein)
cell-killing activity compared with CKP peptide [1]: decreased the cell-killing activity slightly

CKP 3: SEQ ID NO: 6 (RRRRRRRRGRQKLAALISKLF), substituted in two residues (fusion protein)
cell-killing activity compared with CKP peptide [1]: decreased the cell-killing activity slightly

CKP 8: SEQ ID NO: 11 (RRRRRRRRGRQKLLNLISKAF), 9th leucine substituted to alanine (Fusion protein)
cell-killing activity compared with CKP peptide [1]: decreased the cell-killing activity remarkably

CKP 4: SEQ ID NO: 7 (RRRRRRRRGRQKLLNLIAALF), substituted in two residues (fusion protein)
cell-killing activity compared with CKP peptide [1]: outstanding rather than CKP peptide

BidBH3CKP: fusion protein that combines CKP peptide with BidBH3 peptide, SEQ ID NO: 12 (RRRRRRRRGNIARHLAQVGDSMDRRQKLLNLISKLF; Fusion protein)
cell-killing activity relative to BidBH3 peptide ([1]; procedure of Example 2): 2 fold | difference of cell-killing activity with or without z-VAD-fmk [2]: not significant difference

RRRRRRRRGRQKLLNLISKLF [CKP peptide]
concentration from which cell-killing activity is seen ([1]; 0-40 μM, 24 hours, crystal violet, FIG. 3): ≥ 10 µM | cell-killing activity [1]: became strong remarkably | cell-killing effect relative to TRAIL or Cisplatin [3]: about 9 fold | morphology of dead HeLa cells (HeLa cell lines): several cell membranes like balloon | time at which HeLa cells started to die after treatment (HeLa cell lines; CKP peptide 10 μM): about 10 minutes

B1: TRAIL (protein, UniProt P50591 1-281, looked up)
Tumor necrosis factor ligand …: MAMMEVQGGPSLGQTCVLIVIFTVLLQSLCVAVTYVYFTNELKQMQDKYSKSGIACFLKEDDSYWDPNDEESMNSPCWQVKWQLRQLVRKMILRTSEETISTVQEKQQNISPLVRERGPQRVAAHITGTRGRSNTLSSPNSKNEKALGRKINSWESSRSGHSFLSNLHLRNGELVIHEKGFYYIYSQTYFRFQEEIKENTKNDKQMVQYIYKYTSYPDPILLMKSARNSCWSKDAEYGLYSIYQGGIFELKENDRIFVSVTNEHLIDMDHEASFFGAFLVG
notes: substance known to kill cells, used as comparator
morphology of dead HeLa cells (HeLa cell lines): not to have cell membrane like balloon | time at which cell death reached the maximum level (HeLa cell lines; TRAIL 100 ng/ml): about 8 hours
